We go through twelve compounds from the supplement of paper PMC11061612.

What all share (test): Bliss excess, mean over the matrix (fraction); higher = more synergy
The test system of test [1] is PANC-03-27 (Pancreatic Carcinoma). In short, it runs like this:
(§1)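 After 24 hours at 37°C and 5% CO2 in 1536-well plates, cells in DMEM/F12 or RPMI plus 10% FBS received two-drug dose matrices for 72 hours. Viability came from CellTiter-Glo 2.0 luminescence and was scaled as inhibition, anchored at 0 by vehicle wells and at 1 by blank wells. Combination Emax is taken as the second-highest inhibition in the matrix, and Bliss excess as the observed combination effect less EA + EB − EA·EB, with EA and EB the single-agent effects.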

For test [2], the system named is 23132-87 (Gastric Carcinoma). In short, it runs like this:
as §1

The test system of test [3] is PC-3_[JPC-3] (Lung Adenocarcinoma). In short, it runs like this: as §1
In test [4] the test system is REH (B-Lymphoblastic Leukemia). In short, it runs like this: as §1
In test [5] the test system is SU-DHL-10 (B-Cell Non-Hodgkin's Lymphoma). In short, it runs like this: as §1
Test [6] has as its system NCI-H2342 (Lung Adenocarcinoma). In short, it runs like this:
as §1

Regarding `COc1cc2c(cc1OCCCCCOc1cc3c(cc1OC)C(=O)N1C=C(C)C[C@H]1C=N3)N=C[C@@H]1CC(C)=CN1C2=O` [SG3199] + O=C(c1cc(Cc2n[nH]c(=O)c3ccccc23)ccc1F)N1CCN(C(=O)C2CC2)CC1 [Olaparib] (first compound max 0.001 µM, 7x7, partner max 10 µM), the Bliss excess in test [1] was -0.062; in test [2], 0.0217; in test [3] it was -0.0368; in test [4], -0.0099; in test [5], -0.0177; in test [6] it was -0.0569.

For `CCc1c2c(nc3ccc(O)cc13)-c1cc3c(c(=O)n1C2)COC(=O)[C@]3(O)CC` [SN-38] + CN(C)CCCOc1ccc(-c2ccc3ncc4c(c3c2)n(C2CCOCC2)c(=O)n4C)cn1 [AZD0156] (first compound max 0.3 µM, 7x7, partner max 1 µM), the Bliss excess was -0.0071 in test [1]; 0.0322 in test [2]; -0.0551 in test [3]; -0.0093 in test [4]; -0.0242 in test [5]; -0.0425 in test [6].

Take `CC(=O)Nc1cccc(-n2c(=O)n(C3CC3)c(=O)c3c(Nc4ccc(I)cc4F)n(C)c(=O)c(C)c32)c1` [Trametinib] + Cc1nc(-c2cn3c(n2)-c2ccc(-c4cnn(C(C)(C)C(N)=O)c4)cc2OCC3)n(C(C)C)n1 [Taselisib] (first compound max 1 µM, 7x7, partner max 10 µM): the Bliss excess in test [1] turned out to be 0.156; in test [2] it was 0.0654; in test [3], 0.166; in test [4], 0.0939; in test [5], 0.0528; in test [6], 0.0446.

With `CC1(C)CCC(CN2CCN(c3ccc(C(=O)NS(=O)(=O)c4ccc(NCC5CCOCC5)c([N+](=O)[O-])c4)c(Oc4cnc5[nH]ccc5c4)c3)CC2)=C(c2ccc(Cl)cc2)C1` [Venetoclax] + C1CN(CCC1(C(=O)N[C@@H](CCO)C2=CC=C(C=C2)Cl)N)C3=NC=NC4=C3C=CN4 [Capivasertib] (first compound max 1 µM, 7x7, partner max 3 µM), the Bliss excess in test [1] was -0.0881; in test [2] it was -0.0427; in test [3] it was -0.0399; in test [4] it was 0.0111; in test [5], -0.0078; in test [6], -0.0359.

Take `CC1(C)CCC(CN2CCN(c3ccc(C(=O)NS(=O)(=O)c4ccc(NCC5CCOCC5)c([N+](=O)[O-])c4)c(Oc4cnc5[nH]ccc5c4)c3)CC2)=C(c2ccc(Cl)cc2)C1` [Venetoclax] + C=CCn1c(=O)c2cnc(Nc3ccc(N4CCN(C)CC4)cc3)nc2n1-c1cccc(C(C)(C)O)n1 [AZD1775] (first compound max 1 µM, partner max 1 µM): the Bliss excess in test [1] was 0.035; in test [2], -0.0277; in test [3], -0.0736; in test [4], 0.0623; in test [5] it was -0.018; in test [6] it was -0.0184.

On to `CC1(C)CCC(CN2CCN(c3ccc(C(=O)NS(=O)(=O)c4ccc(NCC5CCOCC5)c([N+](=O)[O-])c4)c(Oc4cnc5[nH]ccc5c4)c3)CC2)=C(c2ccc(Cl)cc2)C1` [Venetoclax] + CCN(CCO)CCCOc1ccc2c(Nc3cc(CC(=O)Nc4cccc(F)c4)[nH]n3)ncnc2c1 [AZD2811] (first compound max 1 µM, 7x7, partner max 1 µM), for which the Bliss excess is -0.028 in test [1]; -0.0136 in test [2]; -0.095 in test [3]; 0.18 in test [4]; -0.0844 in test [5]; -0.019 in test [6].

Take `CC1(C)CCC(CN2CCN(c3ccc(C(=O)NS(=O)(=O)c4ccc(NCC5CCOCC5)c([N+](=O)[O-])c4)c(Oc4cnc5[nH]ccc5c4)c3)CC2)=C(c2ccc(Cl)cc2)C1` [Venetoclax] + CN(C)CCCOc1ccc(-c2ccc3ncc4c(c3c2)n(C2CCOCC2)c(=O)n4C)cn1 [AZD0156] (first compound max 1 µM, 7x7, partner max 1 µM): the Bliss excess in test [1] was -0.0876; in test [2], -0.0015; in test [3] it was -0.103; in test [4] it was 0.0037; in test [5], -0.0043; in test [6], -0.0546.

For the compound `CC1(C)CCC(CN2CCN(c3ccc(C(=O)NS(=O)(=O)c4ccc(NCC5CCOCC5)c([N+](=O)[O-])c4)c(Oc4cnc5[nH]ccc5c4)c3)CC2)=C(c2ccc(Cl)cc2)C1` [Venetoclax] + COc1cc(Nc2ncc3c(n2)-c2ccc(Cl)cc2C(c2c(F)cccc2OC)=NC3)ccc1C(=O)O [Alisertib] (first compound max 1 µM, 7x7, partner max 10 µM), the Bliss excess was -0.0236 in test [1]; -0.0303 in test [2]; -0.0502 in test [3]; 0.22 in test [4]; 0.0409 in test [5]; -0.0792 in test [6].

Take `CC1(C)CCC(CN2CCN(c3ccc(C(=O)NS(=O)(=O)c4ccc(NCC5CCOCC5)c([N+](=O)[O-])c4)c(Oc4cnc5[nH]ccc5c4)c3)CC2)=C(c2ccc(Cl)cc2)C1` [Venetoclax] + C[C@@H]1COCCN1C2=NC(=NC(=C2)C3(CC3)[S@](=N)(=O)C)C4=C5C=CNC5=NC=C4 [AZD6738] (first compound max 1 µM, 7x7, partner max 10 µM): the Bliss excess was -0.0556 in test [1]; -0.0422 in test [2]; -0.0438 in test [3]; 0.0493 in test [4]; 0.0138 in test [5]; -0.0209 in test [6].

Regarding `CC1(C)CCC(CN2CCN(c3ccc(C(=O)NS(=O)(=O)c4ccc(NCC5CCOCC5)c([N+](=O)[O-])c4)c(Oc4cnc5[nH]ccc5c4)c3)CC2)=C(c2ccc(Cl)cc2)C1` [Venetoclax] + C[C@@H](Nc1cc(F)cc(F)c1)c1cc(C(=O)N(C)C)cc2c(=O)cc(N3CCOCC3)oc12 [AZD8186] (first compound max 1 µM, 7x7, partner max 3 µM), the Bliss excess was -0.0415 in test [1]; -0.036 in test [2]; -0.0326 in test [3]; 0.01 in test [4]; 0.0052 in test [5]; -0.0643 in test [6].

For the compound `CC1(C)CCC(CN2CCN(c3ccc(C(=O)NS(=O)(=O)c4ccc(NCC5CCOCC5)c([N+](=O)[O-])c4)c(Oc4cnc5[nH]ccc5c4)c3)CC2)=C(c2ccc(Cl)cc2)C1` [Venetoclax] + Cc1cc2ncnn2cc1Nc1ncc2c(n1)n(C1CCOCC1)c(=O)n2C [AZD7648] (first compound max 1 µM, 7x7, partner max 10 µM), the Bliss excess was -0.043 in test [1]; -0.0008 in test [2]; -0.0445 in test [3]; 0.0108 in test [4]; -0.0139 in test [5]; -0.0473 in test [6].

In the case of `CC1(C)CCC(CN2CCN(c3ccc(C(=O)NS(=O)(=O)c4ccc(NCC5CCOCC5)c([N+](=O)[O-])c4)c(Oc4cnc5[nH]ccc5c4)c3)CC2)=C(c2ccc(Cl)cc2)C1` [Venetoclax] + Cn1cnc2c(F)c(Nc3ccc(Br)cc3Cl)c(C(=O)NOCCO)cc21 [Selumetinib] (first compound max 1 µM, 7x7, partner max 3 µM), the Bliss excess is 0.0047 in test [1]; -0.0507 in test [2]; -0.0715 in test [3]; -0.0467 in test [4]; -0.0123 in test [5]; -0.0628 in test [6].
